These results are taken from patent US4879421A, “Method for preparing optically active binaphthol and spiroibiindanol” (General Electric Company, priority 1988, dated 1989).

This assay has as its target T1, cholesterol esterase (Bos taurus, UniProt P30122).
T1 construct: assayed with taurocholate in ether/phosphate emulsion
T1 sequence (P30122 19-597): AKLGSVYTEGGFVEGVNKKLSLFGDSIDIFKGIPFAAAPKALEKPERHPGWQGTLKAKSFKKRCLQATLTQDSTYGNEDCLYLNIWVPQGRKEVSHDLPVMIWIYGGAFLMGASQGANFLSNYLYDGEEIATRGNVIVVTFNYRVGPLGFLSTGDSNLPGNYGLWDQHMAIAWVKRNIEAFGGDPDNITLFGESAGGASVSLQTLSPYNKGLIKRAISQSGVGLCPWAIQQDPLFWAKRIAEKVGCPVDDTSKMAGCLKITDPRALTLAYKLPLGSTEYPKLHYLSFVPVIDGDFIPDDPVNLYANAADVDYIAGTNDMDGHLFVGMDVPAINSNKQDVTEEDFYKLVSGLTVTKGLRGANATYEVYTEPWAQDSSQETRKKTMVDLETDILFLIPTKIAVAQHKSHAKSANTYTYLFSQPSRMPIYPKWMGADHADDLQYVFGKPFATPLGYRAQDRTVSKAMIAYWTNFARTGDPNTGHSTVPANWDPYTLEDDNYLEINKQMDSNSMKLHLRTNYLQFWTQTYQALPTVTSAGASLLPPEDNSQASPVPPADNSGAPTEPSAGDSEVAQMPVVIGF
The experiment in a line: Cholesterol esterase catalyzed hydrolysis of esters, relative rate by pH stat. The format is biochemical. The following applies: commercial cholesterol esterase, 0.1 N NaOH to hold pH 7.0, emulsion of ester (1.0 mmol) in ethyl ether (10 mL) and 10 mM phosphate buffer pH 7.0 with 30 mg sodium taurocholate. Here is the method: In similar manner as Example 2 commercial samples of cholesterol esterase are shown to catalyze the enantiospecific hydrolysis of diesters of 1,1'-bi-2-naphthol listed in the following Table.
^(a) The relative rate of hydrolysis is measured using a pH stat whic
measures the amount of base (0.1 N NaOH) required to maintain the pH at
7.0 for an emulsion of ester (1.0 mmol) dissolved in ethyl ether (10
milliliter) and aqueous buffer (10 milliliters of 10 mM phosphate, pH 7.0
containing 30 milligrams sodium taurocholate).

Turning to `CCC(=O)Oc1ccc2ccccc2c1-c1c(OC(=O)CC)ccc2ccccc12`, the “Relative Rate (relative rate of hydrolysis)” value is reported as 1.1.
The value for `CCCC(=O)Oc1ccc2ccccc2c1-c1c(OC(=O)CCC)ccc2ccccc12` [Butyrate] was 0.5; that for `CC(=O)Oc1ccc2ccccc2c1-c1c(OC(C)=O)ccc2ccccc12` [acetate] was 1.1; that for `CCCCCC(=O)Oc1ccc2ccccc2c1-c1c(OC(=O)CCCCC)ccc2ccccc12` [hexanoate] was 0.5.
The result for `CCCCCCCC(=O)Oc1ccc2ccccc2c1-c1c(OC(=O)CCCCCCC)ccc2ccccc12` [octanoate] reads 0.4; that for `CC(=O)O[C@H]1CC[C@@]2(C)C(=CC[C@H]3[C@@H]4CC[C@H]([C@H](C)CCCC(C)C)[C@@]4(C)CC[C@@H]32)C1` [reference compound], 1.0.
